Measured values from patent US20230011869A1 (Hoffmann-La Roche Inc., priority 2018, published 2023).
Where a name gives a salt, the structure may show the parent alone.

What follows are molecules tested on Acinetobacter baumannii ATCC17961 (assay: Antimicrobial susceptibility testing: 90% growth inhibitory concentration (IC90) determination, Iso-Sensitest broth). Details: Acinetobacter baumannii, ATCC17961, 16 h, 90% growth inhibitory concentration, Acinetobacter baumannii ATCC17961, Iso-Sensitest broth, OD 600 nm over 16 h; read-out: ATCC17961 IC90.
Assay type: cell-based
Method: Antimicrobial Susceptibility Testing:
90% Growth Inhibitory Concentration (IC90) Determination
The in vitro antimicrobial activity of the compounds was determined according to the following procedure:
The assay used a 10-points Iso-Sensitest broth medium to measure quantitatively the in vitro activity of the compounds against Acinetobacter baumannii ATCC17978 and Acinetobacter baumannii ATCC17961.
Stock compounds in DMSO were serially twofold diluted (e.g. range from 50 to 0.097 μM final concentration) in 384 wells microtiter plates and inoculated with 49 μl the bacterial suspension in Iso-Sensitest medium to have a final cell concentration of 5×10^(5) CFU/ml in a final volume/well of 50 ul/well. Microtiter plates were incubated at 35±2° C.
Bacterial cell growth was determined with the measurement of optical density at λ=600 nm each 20 minutes over a time course of 16 h. Growth inhibition was calculated during the logarithmic growth of the bacterial cells with determination of the concentration inhibiting 50% (IC50) and 90% (IC90) of the growth.
Table 1 provides the 90% growth inhibitory concentrations (IC90) in micromoles per liter of the compounds of present invention obtained against the strain Acinetobacter baumannii ATCC17978 and Acinetobacter baumannii ATCC17961.

Row | Compound | IC90
1 | Cc1cc(Nc2nccn3c(-c4ccc(OCC#N)c(F)c4F)cnc23)ccc1C(=O)N1CCN(C(=O)[C@H]2CCNC[C@H]2O)CC1 [Example 189, 2-[2,3-difluoro-4-[8-[4-[4-[(3S,4S)-3-hydroxypiperidine-4-carbonyl]piperazine-1-carbonyl]-3-methyl-anilino]imidazo[1,2-a]pyrazin-3-yl]phenoxy] acetonitrile formate] | 60 nM
2 | Cc1cc(Nc2nccn3c(-c4ccc(OCC#N)c(F)c4F)cnc23)ccc1C(=O)N1CCN(C(=O)[C@@H]2CCNC[C@H]2O)CC1 [Example 190, 2-[2,3-difluoro-4-[8-[4-[4-[(3S,4R)-3-hydroxypiperidine-4-carbonyl]piperazine-1-carbonyl]-3-methyl-anilino]imidazo[1,2-a]pyrazin-3-yl]phenoxy] acetonitrile formate] | 46 nM
3 | Cc1cc(Nc2nccn3c(-c4ccc(OCC#N)c(F)c4F)cnc23)ccc1C(=O)N1CCN(C(=O)[C@H]2CCNC[C@@H]2O)CC1 [Example 191, 2-[2,3-difluoro-4-[8-[4-[4-[(3R,4S)-3-hydroxypiperidine-4-carbonyl]piperazine-1-carbonyl]-3-methyl-anilino]imidazo[1,2-a]pyrazin-3-yl]phenoxy] acetonitrile formate] | 73 nM
4 | Cc1cc(Nc2nccn3c(-c4ccc(OCC#N)c(F)c4F)cnc23)ccc1C(=O)N1CCN(C(=O)C2CCNCC2)CC1 [Example 197, 2-[2,3-difluoro-4-[8-[3-methyl-4-[4-(piperidine-4-carbonyl)piperazine-1-carbonyl]anilino]imidazo [1,2-a]pyrazin-3-yl]phenoxy] acetonitrile formate] | 52 nM
5 | Cc1cc(Nc2nccn3c(-c4ccc(OCC#N)c(F)c4F)cnc23)ccc1C(=O)N1CCN(C(=O)[C@@H]2CCNC2)CC1 [Example 198, 2-[2,3-difluoro-4-[8-[3-methyl-4-[4-[(3R)-pyrrolidine-3-carbonyl]piperazine-1-carbonyl]anilino]imidazo[1,2-a]pyrazin-3-yl]phenoxy] acetonitrile formate] | 39 nM
6 | Cc1cc(Nc2nccn3c(-c4ccc(OCC#N)c(F)c4F)cnc23)ccc1C(=O)N1CCN(C(=O)[C@@H]2C[C@@H](O)CN2)CC1 [Example 200, 2-[2,3-difluoro-4-[8-[4-[4-[(2S,4R)-4-hydroxypyrrolidine-2-carbonyl]piperazine-1-carbonyl]-3-methyl-anilino]imidazo[1,2-a]pyrazin-3-yl]phenoxy] acetonitrile formate] | 67 nM
7 | COc1ccc(-c2cnc3c(Nc4ccc(C(=O)N5CCN(C(=O)C6(O)CCNCC6)CC5)c(C)c4)nccn23)c(F)c1F [Example 204, [4-[[3-(2,3-difluoro-4-methoxy-phenyl)imidazo[1,2-a]pyrazin-8-yl]amino]-2-methyl-phenyl]-[4-(4-hydroxypiperidine-4-carbonyl)piperazin-1-yl]methanone hydrochloride] | 46 nM
8 | Cc1cc(Nc2nccn3c(-c4ccc(OCC#N)c(F)c4F)cnc23)ccc1C(=O)N1CCN(C(=O)C2(O)CCNCC2)CC1 [Example 206, 2-[2,3-difluoro-4-[8-[4-[4-(4-hydroxypiperidine-4-carbonyl)piperazine-1-carbonyl]-3-methyl-anilino]imidazo[1,2-a]pyrazin-3-yl]phenoxy] acetonitrile formate] | 36 nM
9 | Cc1cc(Nc2nccn3c(-c4ccc(OCC#N)c(F)c4Cl)cnc23)ccc1C(=O)N1CCN(C(=O)C2CCNCC2)CC1 [Example 209, 2-[3-chloro-2-fluoro-4-[8-[3-methyl-4-[4-(piperidine-4-carbonyl)piperazine-1-carbonyl]anilino]imidazo[1,2-a]pyrazin-3-yl]phenoxy] acetonitrile formate] | 68 nM
10 | Cc1cc(Nc2nccn3c(-c4ccc(OCC#N)c(F)c4Cl)cnc23)ccc1C(=O)N1CCN(C(=O)[C@@H]2C[C@@H](O)CN2)CC1 [Example 211, 2-[3-chloro-2-fluoro-4-[8-[4-[4-[(2S,4R)-4-hydroxypyrrolidine-2-carbonyl]piperazine-1-carbonyl]-3-methyl-anilino]imidazo[1,2-a]pyrazin-3-yl]phenoxy] acetonitrile formate] | 42 nM
11 | Cc1cc(Nc2nccn3c(-c4ccc(OCC#N)c(F)c4Cl)cnc23)ccc1C(=O)N1CCN(C(=O)[C@@H]2CCNC2)CC1 [Example 212, 2-[3-chloro-2-fluoro-4-[8-[3-methyl-4-[4-[(3R)-pyrrolidine-3-carbonyl]piperazine-1-carbonyl]anilino]imidazo[1,2-a]pyrazin-3-yl]phenoxy] acetonitrile formate] | 34 nM
12 | Cc1cc(Nc2nccn3c(-c4ccc(OCC#N)c(F)c4Cl)cnc23)ccc1C(=O)N1CCN(C(=O)[C@H]2CCNC2)CC1 [Example 213, 2-[3-chloro-2-fluoro-4-[8-[3-methyl-4-[4-[(3S)-pyrrolidine-3-carbonyl]piperazine-1-carbonyl]anilino]imidazo[1,2-a]pyrazin-3-yl]phenoxy] acetonitrile formate] | 33 nM
13 | Cc1cc(Nc2nccn3c(-c4ccc(OCC#N)c(F)c4Cl)cnc23)ccc1C(=O)N1CCN(C(=O)C2(O)CCNCC2)CC1 [Example 214, 2-[3-chloro-2-fluoro-4-[8-[4-[4-(4-hydroxypiperidine-4-carbonyl)piperazine-1-carbonyl]-3-methyl-anilino]imidazo[1,2-a]pyrazin-3-yl]phenoxy] acetonitrile formate] | 41 nM
14 | Cc1cc(Nc2nccn3c(-c4ccc(OCC#N)c(F)c4Cl)cnc23)ccc1C(=O)N1CCN(C(=O)[C@H]2CCNC[C@@H]2O)CC1 [Example 220, 2-[3-chloro-2-fluoro-4-[8-[4-[4-[(3R,4S)-3-hydroxypiperidine-4-carbonyl]piperazine-1-carbonyl]-3-methyl-anilino]imidazo[1,2-a]pyrazin-3-yl]phenoxy] acetonitrile formate] | 64 nM
15 | Cc1cc(Nc2nccn3c(-c4ccc(OCC#N)c(F)c4Cl)cnc23)ccc1C(=O)N1CCN(C(=O)[C@@H]2CCNC[C@H]2O)CC1 [Example 221, 2-[3-chloro-2-fluoro-4-[8-[4-[4-[(3S,4R)-3-hydroxypiperidine-4-carbonyl]piperazine-1-carbonyl]-3-methyl-anilino]imidazo[1,2-a]pyrazin-3-yl]phenoxy] acetonitrile formate] | 59 nM
16 | Cc1cc(Nc2nccn3c(-c4ccc(OCC#N)c(F)c4Cl)cnc23)ccc1C(=O)N1CCN(C(=O)[C@H]2CCNC[C@H]2O)CC1 [Example 222, 2-[3-chloro-2-fluoro-4-[8-[4-[4-[(3S,4S)-3-hydroxypiperidine-4-carbonyl]piperazine-1-carbonyl]-3-methyl-anilino]imidazo[1,2-a]pyrazin-3-yl]phenoxy] acetonitrile formate] | 38 nM
17 | COc1ccc(-c2cnc3c(Nc4ccc(C(=O)N5CCN(C(=O)[C@@H]6C[C@H](O)CN6)CC5)c(C)c4)nccn23)c(F)c1F [Example 227, [4-[[3-(2,3-difluoro-4-methoxy-phenyl)imidazo[1,2-a]pyrazin-8-yl]amino]-2-methyl-phenyl]-[4-[(2S,4S)-4-hydroxypyrrolidine-2-carbonyl]piperazin-1-yl]methanone] | 58 nM
18 | CC[C@@]1(O)CN[C@H](C(=O)N2CCN(C(=O)c3ccc(Nc4nccn5c(-c6ccc(OCC#N)c(F)c6F)cnc45)cc3C)CC2)C1 [Example 229, 2-[4-[8-[4-[4-[(2S,4S)-4-ethyl-4-hydroxy-pyrrolidine-2-carbonyl]piperazine-1-carbonyl]-3-methyl-anilino]imidazo[1,2-a]pyrazin-3-yl]-2,3-difluoro-phenoxy]acetonitrile formate] | 44 nM
19 | Cc1cc(Nc2nccn3c(-c4ccc(OCC#N)c(F)c4F)cnc23)ccc1C(=O)N1CCN(C(=O)[C@@H]2C[C@@](C)(O)CN2)CC1 [Example 231, 2-[2,3-difluoro-4-[8-[4-[4-[(2S,4R)-4-hydroxy-4-methyl-pyrrolidine-2-carbonyl]piperazine-1-carbonyl]-3-methyl-anilino]imidazo[1,2-a]pyrazin-3-yl]phenoxy] acetonitrile formate] | 53 nM
20 | COc1ccc(-c2cnc3c(Nc4ccc(C(=O)N5CCN(C(=O)[C@H]6NC[C@H](O)[C@@H]6O)CC5)c(C)c4)nccn23)cc1F [Example 233, ((2S,3R,4S)-3,4-dihydroxypyrrolidin-2-yl)(4-(4-((3-(3-fluoro-4-methoxyphenyl)imidazo[1,2-a]pyrazin-8-yl)amino)-2-methylbenzoyl)piperazin-1-yl)methanone hydrochloride] | 190 nM
21 | COc1ccc(-c2cnc3c(Nc4ccc(C(=O)N5CCN(C(=O)[C@H]6NC[C@H](O)[C@@H]6O)CC5)c(C)c4)nccn23)c(F)c1F [Example 234, (4-(4-((3-(2,3-difluoro-4-methoxyphenyl)imida-zo[1,2-a]pyrazin-8-yl)amino)-2-methylbenzoyl)piper-azin-1-yl)((2S,3R,4S)-3,4-dihydroxypyrrolidin-2-yl)methanone] | 133 nM
22 | COc1ccc(-c2cnc3c(Nc4ccc(C(=O)N5CCN(C(=O)[C@@H]6NC[C@@H](O)[C@H]6O)CC5)c(C)c4)nccn23)c(F)c1F [Example 235, (4-(4-((3-(2,3-difluoro-4-methoxyphenyl)imida-zo[1,2-a]pyrazin-8-yl)amino)-2-methylbenzoyl)piper-azin-1-yl)((2R,3S,4R)-3,4-dihydroxypyrrolidin-2-yl)methanone] | 117 nM
